Reference: publication PMC2099433, “The binding site for neohesperidin dihydrochalcone at the human sweet taste receptor” (BMC Structural Biology, 2007)
Numbering of substitutions follows the chain as printed. Read-outs that look alike come from different tables or passages of the source. Where a SMILES comes first, the peptide text is derived from it.

Key:
[1] = target: T1, hTAS1R2 + hTAS1R3 G804V^7.42 (Homo sapiens, UniProt Q7RTX0+Q8TE23, G804V); assay: Calcium response (FLIPR), hTAS1R3 mutant coexpressed with hTAS1R2; type: cell-based; settings: for EC50: n.r. = no response to NHDC up to highest tested concentration (6 mM), but responses to other sweeteners
T1 construct: expressed in transfected cells; host or cells: HEK293T cells stably expressing G16Gust44
T1 sequence (Q7RTX0 21-852 G804V): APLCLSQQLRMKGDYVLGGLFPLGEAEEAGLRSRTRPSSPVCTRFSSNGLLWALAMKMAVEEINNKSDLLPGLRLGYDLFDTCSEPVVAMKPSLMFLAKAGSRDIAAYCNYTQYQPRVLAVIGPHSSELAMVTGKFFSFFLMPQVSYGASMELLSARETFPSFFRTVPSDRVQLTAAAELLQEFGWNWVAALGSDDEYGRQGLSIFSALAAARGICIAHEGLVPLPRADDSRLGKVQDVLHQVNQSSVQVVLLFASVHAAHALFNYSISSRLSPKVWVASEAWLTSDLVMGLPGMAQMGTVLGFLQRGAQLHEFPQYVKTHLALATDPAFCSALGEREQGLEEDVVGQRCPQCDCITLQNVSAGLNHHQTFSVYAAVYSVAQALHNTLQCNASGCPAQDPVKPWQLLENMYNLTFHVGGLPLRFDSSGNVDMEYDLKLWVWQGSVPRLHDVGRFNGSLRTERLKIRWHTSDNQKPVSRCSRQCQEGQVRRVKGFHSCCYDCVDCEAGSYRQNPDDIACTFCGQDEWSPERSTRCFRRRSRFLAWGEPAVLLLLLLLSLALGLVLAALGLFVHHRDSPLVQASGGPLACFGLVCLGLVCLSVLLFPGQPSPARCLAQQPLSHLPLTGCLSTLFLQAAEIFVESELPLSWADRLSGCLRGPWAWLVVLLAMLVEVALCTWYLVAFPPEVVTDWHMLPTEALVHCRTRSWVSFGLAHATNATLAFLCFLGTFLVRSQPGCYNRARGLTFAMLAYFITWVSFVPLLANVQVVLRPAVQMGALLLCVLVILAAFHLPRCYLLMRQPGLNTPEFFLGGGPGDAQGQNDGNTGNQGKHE
T1 sequence (Q8TE23 20-839): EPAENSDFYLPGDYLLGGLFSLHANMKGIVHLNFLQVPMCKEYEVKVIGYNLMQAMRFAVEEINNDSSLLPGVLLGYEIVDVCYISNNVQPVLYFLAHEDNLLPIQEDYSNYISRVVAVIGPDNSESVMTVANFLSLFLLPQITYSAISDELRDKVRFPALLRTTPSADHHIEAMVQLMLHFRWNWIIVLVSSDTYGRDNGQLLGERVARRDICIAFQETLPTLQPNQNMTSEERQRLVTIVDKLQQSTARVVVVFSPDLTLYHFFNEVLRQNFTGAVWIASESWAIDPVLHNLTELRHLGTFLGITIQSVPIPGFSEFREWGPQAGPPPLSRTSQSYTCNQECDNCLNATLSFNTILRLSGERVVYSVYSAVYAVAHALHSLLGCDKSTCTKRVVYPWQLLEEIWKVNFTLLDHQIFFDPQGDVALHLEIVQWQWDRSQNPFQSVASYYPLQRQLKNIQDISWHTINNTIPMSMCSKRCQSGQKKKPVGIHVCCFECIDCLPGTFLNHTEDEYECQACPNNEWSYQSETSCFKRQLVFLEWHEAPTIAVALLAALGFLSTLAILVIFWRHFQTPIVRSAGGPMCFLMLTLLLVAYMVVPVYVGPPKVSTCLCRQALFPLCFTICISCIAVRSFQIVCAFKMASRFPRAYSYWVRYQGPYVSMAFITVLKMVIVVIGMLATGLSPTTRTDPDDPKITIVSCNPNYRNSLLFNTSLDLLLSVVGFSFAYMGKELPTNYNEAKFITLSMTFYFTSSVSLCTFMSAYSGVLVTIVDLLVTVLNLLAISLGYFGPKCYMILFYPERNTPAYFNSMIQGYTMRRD
Procedure, shortened: (§1)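 Read-out: FLIPR calcium signal as ΔF/F = (F-F0)/F0, corrected for mock-transfected cells. Cells were HEK293T stably carrying G16Gust44, transiently transfected with HSV-tagged receptor cDNAs and dye-loaded with Fluo4-AM 24 h post transfection.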

[2] = target: T2, hTAS1R2 + hTAS1R3 Q637E^3.29 (Homo sapiens, UniProt Q7RTX0+Q8TE23, Q637E); assay: as above; type: cell-based; settings: variant Q637E^3.29; for Emax: read-out: maximal signal (% of wt)
T2 construct: expressed in transfected cells; host or cells: HEK293T cells stably expressing G16Gust44
T2 sequence (Q8TE23 20-839): T1 sequence (Q8TE23 20-839)
T2 sequence (Q7RTX0 21-852 Q637E): T1 sequence (Q7RTX0 21-852 G804V) with Q617E, V784G
Procedure, shortened: as §1

EC50 ([1]; variant G804V^7.42) | EC50 [2] | Emax [2] | EC50 ([1]; variant G804V^7.42, read-out: EC50) | Emax ([1]; variant G804V^7.42, read-out: maximal signal (% of wt)) | SMILES | receptor response ([1]; mutant G804V^7.42, any tested concentration)
n.r. | 1500 ± 400 µM | 51 ± 13% |  |  | COc1ccc(CCC(=O)c2c(O)cc(O[C@@H]3O[C@H](CO)[C@@H](O)[C@H](O)[C@H]3O[C@@H]3O[C@@H](C)[C@H](O)[C@@H](O)[C@H]3O)cc2O)cc1O [NHDC, neohesperidin dihydrochalcone] | did not respond to NHDC at any tested concentration
 | 1700 ± 200 µM | 51 ± 10% | 1300 ± 300 µM | 21 ± 2% | COC(=O)[C@H](Cc1ccccc1)NC(=O)[C@@H](N)CC(=O)O [aspartame] (HELM PEPTIDE1{D.F.[CO[*:1]]}$$$$V2.0) | 
